For one test, the system named is HT1080 cells. Nature of the test: Cellular assay for IDH1m inhibitors: inhibition of 2-HG production (LC-MS, 48 hours) in HT1080 cells. It counts as cell-based. The note with it: Homo sapiens, HT-1080; inhibition of 2-HG production, HT1080 cells; read-out: HT1080 IC50. An outline of the steps: (§1)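 HT1080 or U87MG cells were seeded at 5000/well in DMEM with 10% FBS, incubated overnight, then treated with compounds (0.2% DMSO final) for 48 h. Medium 2-HG was quantified by LC-MS, and IC50 was taken as the concentration reducing 2-HG by 50% versus DMSO control.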

The next test concerns the target IDH1 R132H (Homo sapiens, UniProt O75874, R132H). The experiment in a line: Assay for IDH1 R132H inhibitors (NADPH/aKG, resazurin detection). It counts as biochemical. The note with it: enzyme assay of Example 12; read-out: IDH1R132H IC50. An outline of the steps:
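Read-out is resorufin fluorescence (Ex544/Em590) 5 min after adding a 30 μM resazurin detection mix. Before that, mutant enzyme (0.2 μg/ml in its mix) ran 50 min at room temperature with compound, 8 uM NADPH and 2 mM aKG (mix levels) in Tris pH 7.5 with NaCl, MgCl2, BSA.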
Background: Resazurin is reduced to fluorescent resorufin, in cell work by metabolically active cells.

Another test relates to U87MG cells. The experiment in a line: Cellular assay for IDH1m inhibitors: inhibition of 2-HG production (LC-MS, 48 hours) in U87MG cells. It counts as cell-based. Conditions: Homo sapiens, U-87 MG, inhibition of 2-HG production, U87R132H cells; read-out: U87R132H IC50. The gist of the method:
as §1

As a reminder, the IC50 is the midpoint of a concentration-inhibition curve.

Chain of IDH1 R132H (O75874 whole entry R132H): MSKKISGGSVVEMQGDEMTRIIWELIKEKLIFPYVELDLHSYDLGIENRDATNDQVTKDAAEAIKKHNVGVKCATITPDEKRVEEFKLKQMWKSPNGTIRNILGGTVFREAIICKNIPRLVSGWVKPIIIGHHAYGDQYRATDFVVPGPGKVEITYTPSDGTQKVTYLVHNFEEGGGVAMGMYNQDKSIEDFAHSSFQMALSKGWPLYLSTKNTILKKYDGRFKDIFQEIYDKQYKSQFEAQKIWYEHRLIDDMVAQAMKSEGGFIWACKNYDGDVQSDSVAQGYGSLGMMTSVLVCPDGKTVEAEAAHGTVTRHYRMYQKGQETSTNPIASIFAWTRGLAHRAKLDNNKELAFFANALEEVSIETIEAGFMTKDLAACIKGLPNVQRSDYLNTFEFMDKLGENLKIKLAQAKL

In the case of `COCCC(=O)N1CCN(c2nc(C3CC3)c(-c3ccc(C(N)=O)cc3)cc2C#N)C[C@H]1C` [Compound 296, (R)-4-(5-cyano-2-cyclopropyl-6-(4-(3-methoxypropanoyl)-3-methylpiperazin-1-yl)pyridin-3-yl)benzamide], the results for the IC50 in the test with HT1080 cells, at IDH1 R132H and in the test on U87MG cells were 500 to 1000 nM, under 500 nM and 500 to 1000 nM, respectively.

With `C=CC(=O)Nc1cccc(-c2cc(C#N)c(N3CCN(C(=O)CCOC)[C@H](C)C3)nc2C2CC2)c1` [Compound 343, (R)—N-(3-(5-cyano-2-cyclopropyl-6-(4-(3-methoxypropanoyl)-3-methylpiperazin-1-yl)pyridin-3-yl)phenyl)acrylamide], the IC50 in the test with HT1080 cells, on IDH1 R132H and with U87MG cells was under 500 nM throughout.

In the case of `COCCC(=O)N1CCN(c2nc(C3CC3)c(-c3cccc4cnccc34)cc2C#N)C[C@H]1C` [Compound 286, (R)-6-cyclopropyl-5-(isoquinolin-5-yl)-2-(4-(3-methoxypropanoyl)-3-methylpiperazin-1-yl)nicotinonitrile], the 50% inhibitory concentration (IC50) in the test with HT1080 cells, on IDH1 R132H and in the test on U87MG cells was under 500 nM each time.

Take `C=Cc1ncc2c(-c3cc(C#N)c(N4CCN(C(=O)CCO)[C@H](C)C4)nc3C3CC3)cccc2n1` [Compound 652, (R)-6-cyclopropyl-2-(4-(3-hydroxypropanoyl)-3-methylpiperazin-1-yl)-5-(2-vinylquinazolin-5-yl)nicotinonitrile]: the half-maximal inhibitory concentration (IC50) in the test on HT1080 cells, at IDH1 R132H and with U87MG cells was under 500 nM in each case.

For the molecule `COCCC(=O)N1CCN(c2nc(C3CC3)c(-c3ccc(N)cc3)c(C)c2C#N)C[C@H]1C` [Compound 411, (R)-5-(4-aminophenyl)-6-cyclopropyl-2-(4-(3-methoxypropanoyl)-3-methylpiperazin-1-yl)-4-methylnicotinonitrile], the IC50 with HT1080 cells is 500 to 1000 nM; on IDH1 R132H, under 500 nM; in the test on U87MG cells, 500 to 1000 nM.

`C=Cc1cc(-c2cc(C#N)c(N3CCN(C(=O)CCO)[C@H](C4CC4)C3)nc2C2CC2)ncn1` [Compound 663, (R)-6-cyclopropyl-2-(3-cyclopropyl-4-(3-hydroxypropanoyl)piperazin-1-yl)-5-(6-vinylpyrimidin-4-yl)nicotinonitrile]: the IC50 in the test on HT1080 cells, on IDH1 R132H and with U87MG cells was under 500 nM throughout.

Turning to `COCCC(=O)N1CCN(c2nc(C3CC3)c(-c3cncc4ccccc34)c(C)c2C#N)C[C@H]1C` [Compound 408, 6-cyclopropyl-5-(isoquinolin-4-yl)-2-((R)-4-(3-methoxypropanoyl)-3-methylpiperazin-1-yl)-4-methylnicotinonitrile], the 50% inhibitory concentration (IC50) in the test on HT1080 cells was 500 to 1000 nM; at IDH1 R132H, under 500 nM; in the test with U87MG cells, under 500 nM.

For the molecule `COCCC(=O)N1CCN(c2nc(C3CC3)c(-c3cccc(NC(=O)[C@H](C)Cl)c3)cc2C#N)C[C@H]1C` [Compound 447, (S)-2-chloro-N-(3-(5-cyano-2-cyclopropyl-6-((R)-4-(3-methoxypropanoyl)-3-methylpiperazin-1-yl)pyridin-3-yl)phenyl)propanamide], the half-inhibitory concentration (IC50) with HT1080 cells lay within 1000 to 10000 nM; at IDH1 R132H it was 500 to 1000 nM; with U87MG cells, 1000 to 10000 nM.

Take `N#Cc1cc(-c2cccc3cnccc23)c(C2CC2)nc1N1CCN(C(=O)CC(F)(F)F)[C@H](C2CC2)C1` [Compound 387, (R)-6-cyclopropyl-2-(3-cyclopropyl-4-(3,3,3-trifluoropropanoyl)piperazin-1-yl)-5-(isoquinolin-5-yl)nicotinonitrile]: the IC50 in the test with HT1080 cells, on IDH1 R132H and in the test with U87MG cells was under 500 nM in each case.

In the case of `C=Cc1cc(-c2cc(C#N)c(N3CCN(C(=O)CCOC)[C@H](C)C3)nc2C2CC2)ccn1` [Compound 390, (R)-2-cyclopropyl-6-(4-(3-methoxypropanoyl)-3-methylpiperazin-1-yl)-2′-vinyl-3,4′-bipyridine-5-carbonitrile], the IC50 in the test on HT1080 cells, on IDH1 R132H and with U87MG cells was under 500 nM in each case.

On to `COCCC(=O)N1CCN(c2nc(C3CC3)c(-c3ccc4scnc4c3)cc2C#N)C[C@H]1C` [Compound 352, (R)-5-benzothiazol-5-yl-6-cyclopropyl-2-[4-(3-methoxy-propionyl)-3-methyl-piperazin-1-yl]-nicotinonitrile], for which the figures for the IC50 in the test on HT1080 cells, on IDH1 R132H and with U87MG cells were 1000 to 10000 nM, under 500 nM and 500 to 1000 nM, respectively.

`C#CC(=O)N(C)c1cccc(-c2cc(C#N)c(N3CCN(C(=O)CCOC)[C@H](C)C3)nc2C2CC2)c1` [Compound 456]: the IC50 with HT1080 cells, at IDH1 R132H and in the test on U87MG cells was under 500 nM throughout.

Consider `C=Cc1cc(-c2cc(C#N)c(N3CCN(C(=O)C[C@@H](C)O)[C@H](C4CC4)C3)nc2C2CC2)ccn1` [Compound 585, 2-cyclopropyl-6-((R)-3-cyclopropyl-4-((R)-3-hydroxybutanoyl)piperazin-1-yl)-2′-vinyl-3,4′-bipyridine-5-carbonitrile], for which the IC50 in the test on HT1080 cells, on IDH1 R132H and in the test with U87MG cells was under 500 nM in each case.

For the molecule `C=Cc1cc(-c2cc(C#N)c(N3CCN(C(=O)COC)[C@H](C(C)C)C3)nc2C2CC2)c2ccncc2n1` [Compound 741, (R)-6-cyclopropyl-2-(3-isopropyl-4-(2-methoxyacetyl)piperazin-1-yl)-5-(2-vinyl-1,7-naphthyridin-4-yl)nicotinonitrile], the IC50 with HT1080 cells, on IDH1 R132H and in the test with U87MG cells was under 500 nM throughout.

With `C=Cc1cc(Nc2cc(C#N)c(N3CCN(C(=O)CCO)[C@H](C4CC4)C3)nc2C2CC2)ccn1` [Compound 676, (R)-6-cyclopropyl-2-(3-cyclopropyl-4-(3-hydroxypropanoyl)piperazin-1-yl)-5-((2-vinylpyridin-4-yl)amino)nicotinonitrile], the IC50 in the test with HT1080 cells, at IDH1 R132H and in the test on U87MG cells was under 500 nM each time.

As for `C=Cc1cc(Nc2cc(C#N)c(N3CCN(C(=O)CCOC)[C@H](C4CC4)C3)nc2C2CC2)ccn1` [Compound 678, (R)-6-cyclopropyl-2-(3-cyclopropyl-4-(3-methoxypropanoyl)piperazin-1-yl)-5-((2-vinylpyridin-4-yl)amino)nicotinonitrile], the IC50 in the test with HT1080 cells, on IDH1 R132H and with U87MG cells was under 500 nM throughout.

`C=Cc1cc(-c2cc(C#N)c(N3CCN(C(=O)C4CC4)[C@H](C)C3)nc2C2CC2)ccn1` [Compound 443, (R)-6-(4-(cyclopropanecarbonyl)-3-methylpiperazin-1-yl)-2-cyclopropyl-2′-vinyl-3,4′-bipyridine-5-carbonitrile]: the IC50 in the test on HT1080 cells, at IDH1 R132H and in the test with U87MG cells was under 500 nM each time.

As to `COCCC(=O)N1CCN(c2nc(C3CC3)c(-c3ccc(C)c(F)c3)c(C)c2C#N)C[C@H]1C` [Compound 266, (R)-6-cyclopropyl-5-(3-fluoro-4-methylphenyl)-2-(4-(3-methoxypropanoyl)-3-methylpiperazin-1-yl)-4-methylnicotinonitrile], the IC50 in the test with HT1080 cells was 1000 to 10000 nM; at IDH1 R132H, under 500 nM; in the test on U87MG cells, 1000 to 10000 nM.

For `C=Cc1cnnc(-c2c(C3CC3)nc(N3CCN(C(=O)C[C@H]4CCO4)[C@H](C(C)C)C3)c(C#N)c2C)c1` [Compound 793, 6-cyclopropyl-2-((R)-3-isopropyl-4-(2-((R)-oxetan-2-yl)acetyl)piperazin-1-yl)-4-methyl-5-(5-vinylpyridazin-3-yl)nicotinonitrile], the IC50 in the test on HT1080 cells, at IDH1 R132H and in the test with U87MG cells was under 500 nM in each case.

Turning to `C=Cc1cc(-c2cc(C#N)c(N3CCN(C(=O)CCO)[C@H](C4CC4)C3)nc2C2CC2)ccn1` [Compound 527], the IC50 in the test with HT1080 cells, at IDH1 R132H and with U87MG cells was under 500 nM in each case.

Regarding `C=Cc1cc(Nc2c(C3CC3)nc(N3CCN(C(=O)CCO)[C@H](C4CC4)C3)c(C#N)c2C)ccn1` [Compound 742, (R)-6-cyclopropyl-2-(3-cyclopropyl-4-(3-hydroxypropanoyl)piperazin-1-yl)-4-methyl-5-(2-vinylpyridin-4-ylamino)nicotinonitrile], the IC50 in the test with HT1080 cells, on IDH1 R132H and with U87MG cells was under 500 nM each time.

On to `COCCC(=O)N1CCN(c2nc(C3CC3)c(-c3ccc(S(N)(=O)=O)cc3)c(C)c2C#N)C[C@H]1C` [Compound 393, (R)-4-{5-cyano-2-cyclopropyl-6-[4-(3-methoxy-propionyl)-3-methyl-piperazin-1-yl]-4-methyl-pyridin-3-yl}-benzenesulfonamide], for which the 50% inhibitory concentration (IC50) is 1000 to 10000 nM in the test with HT1080 cells, under 500 nM at IDH1 R132H and 500 to 1000 nM with U87MG cells.

For the origin of these results see US9856279B2 (AGIOS PHARMACEUTICALS, INC, priority 2011, dated 2018).
